3 compounds from US7572606B1 (Nereus Pharmaceuticals, Inc., priority 2005, dated 2009) can be followed below.

Several values for one entry are separate records, joined by “and”; a condition that tells them apart may be missing. Identical values can stand only once. Entries after “also recorded” stand apart in the source; their conditions may differ. Like-named read-outs stand apart in the source and are kept apart here.

One series concerns ACHN. As to the kind of experiment: NCI 60 cell line screen, sulforhodamine B, 48 h. The note with it: Renal Cancer. It counts as cell-based, human. Here is the method: (§1) A detailed description of the screening procedure can be found at hypertext transfer protocol (http://) “dtp.nci.nih.gov/branches/btb/ivclsp.html.”
(§2) In brief, each of the 60 human tumor cell lines were grown in RPMI 1640 medium, supplemented with 5% fetal bovine serum and 2 mM L-glutamine. Cells were plated at their appropriate density in 96-well microtiter plates and incubated at 37° C., 5% CO2, 95% air and 100% relative humidity. […] Cells were incubated for an additional 48 hours and a sulforhodamine B protein assay was used to estimate cell viability or growth.

The subject of the next series is HCI-H23. As to the kind of experiment: NCI 60 cell line screen, sulforhodamine B, 48 h. It counts as cell-based, human. The note with it: HCI-H23, Non-Small Cell Lung Cancer. Here is the method:
as §1, §2

Another series deals with HDP-92. As to the kind of experiment: NCI 60 cell line screen, sulforhodamine B, 48 h. It counts as cell-based, human. Here is the method:
as §1, §2

The test system of another series is M14. As to the kind of experiment: NCI 60 cell line screen, sulforhodamine B, 48 h. It counts as cell-based, human. Here is the method: as §1, §2
The subject of the next series is SR. As to the kind of experiment: NCI 60 cell line screen, sulforhodamine B, 48 h. It counts as cell-based, human. The note with it: Leukemia. Here is the method: as §1, §2
The test system of series [1] is 60 human tumor cell lines. As to the kind of experiment: NCI screening panel, values over all cell lines. It counts as cell-based.
Another series relates to HEK293. As to the kind of experiment: Cell growth inhibition, resazurin, 48 h. It counts as cell-based. The following applies: Homo sapiens; HEK293, 48 h drug exposure.
The next series relates to HT-29. As to the kind of experiment: Cell growth inhibition, resazurin, 48 h. The following applies: HT-29, 48 h drug exposure. It counts as cell-based, human. Here is the method:
RPMI 8226 (CCL-155), HT-29 (HTB-38), and B16-F10 (CRL-6475) cells were purchased from ATCC. RPMI 8226 cells were maintained in RPMI 1640 media supplemented with 10% (v/v) FBS, 2 mM L-glutamine, 1 mM sodium pyruvate and Penicillin/Streptomycin at 100 IU/ml and 100 μg/ml, respectively. HT-29 cells were maintained in McCoys 5A supplemented with 10% (v/v) FBS, 2 mM L-glutamine, 1 mM sodium pyruvate, 1% (v/v) non-essential amino acids, 10 mM HEPES and Penicillin/Streptomycin at 100 IU/ml and 100 μg/ml, respectively. B16-F10 cells were maintained in DMEM supplemented with 10% (v/v) FBS, 2 mM L-glutamine, 10 mM HEPES and Penicillin/Streptomycin at 100 IU/ml and 100 μg/ml, respectively.
RPMI 8226 cells were seeded at 2×10^4 cells/well in 90 μl RPMI media containing 10% (v/v) FBS or 1% (v/v) FBS into 96 well black-walled, clear-bottom tissue culture plates. […] Formulae II-16, II-17 and Formula II-18 were serially diluted in media containing 1% or 10% FBS and added in triplicate to the test wells. […] The final concentration of Formula II-18 ranged from 2 μM to 630 pM.

The next series relates to MDA-MB-231. As to the kind of experiment: Cell growth inhibition, resazurin, 48 h. It counts as cell-based, human. The following applies: MDA-MB-231, 48 h drug exposure. In general terms: Resazurin is reduced to fluorescent resorufin, in cell work by metabolically active cells.
The subject of a further series is OVCAR-3. As to the kind of experiment: Cell growth inhibition, resazurin, 48 h. It counts as cell-based, human. The note with it: OVCAR-3, 48 h drug exposure.
Another series concerns PANC-1. As to the kind of experiment: Cell growth inhibition, resazurin, 48 h. It counts as cell-based. The note with it: Homo sapiens; PANC-1, 48 h drug exposure.
The subject of the next series is RPMI 8226. As to the kind of experiment: Cell growth inhibition, resazurin, 48 h. The following applies: for EC50: Homo sapiens, RPMI-8226, 48 h, RPMI 8226, 48 h drug exposure; for % cytotoxicity: RPMI 8226. In short, it runs like this: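 RPMI 8226 cells seeded at 2×10^4/well in medium with 10% or 1% FBS and treated in triplicate with serial dilutions made in 1% or 10% FBS medium (Formula II-18 final 2 μM to 630 pM). Growth read by resazurin after 48 h.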

Another series relates to U266. As to the kind of experiment: Cell growth inhibition, resazurin, 48 h. It counts as cell-based, human. The following applies: U266, 48 h drug exposure.
The test system of the next series is Jurkat. As to the kind of experiment: Cytotoxicity against Jurkat cells. It counts as cell-based, human.
The subject of the next series is MES-SA/Dx5. As to the kind of experiment: Cell growth inhibition, resazurin, 48 h. The note with it: for EC50: Homo sapiens, MES-SA/Dx5, 48 h. Here is the method: (§3) Concentrations ranging from 6.32 μM to 2 nM were tested for II-2 and II-4.
A further series has as its system MES-SA. As to the kind of experiment: Cell growth inhibition, resazurin, 48 h. The following applies: for EC50: Homo sapiens, 48 h. Here is the method: as §3
Another series has as its system HL-60/MX2. As to the kind of experiment: Cell growth inhibition, resazurin, 48 h. The note with it: for EC50: HL-60/MX2, 48 h drug exposure. Here is the method:
(§4) The DNA binding agent Mitoxantrone was included as a control, as HL-60/MX2 cells are reported to be resistant to this chemotherapeutic agent (Harker W. G. et al. 1989).
as §3

A further series deals with HL-60. As to the kind of experiment: Cell growth inhibition, resazurin, 48 h. The following applies: for EC50: HL-60, 48 h drug exposure. Here is the method:
as §4, §3

In series [2] the test system is PARP and Pro-Caspase 3 in RPMI 8226 cells. As to the kind of experiment: PARP and Pro-Caspase 3 cleavage, western blot. It counts as cell-based, human. The note with it: 100 nM for 0, 8 or 24 hours; varying concentrations for 8 hours. Here is the method:
Total protein lysates were made and 20 μg of the lysates were then resolved under reducing/denaturing conditions and blotted onto nitrocellulose. The blots were then probed with anti-PARP or anti-caspase 3 antibodies followed by stripping and reprobing with an anti-actin antibody.
25 μg of the lysates were then resolved under reducing/denaturing conditions and blotted onto nitrocellulose. The blots were then probed with anti-PARP or anti-caspase 3 antibodies followed by stripping and reprobing with an anti-actin antibody.
On the technique in general: In western blotting, separated proteins are transferred to a membrane and probed.

In another series the test system is PC-3. As to the kind of experiment: Cell growth inhibition, resazurin, 48 h.
Series [3] has as its target caspase-like (PGPH) activity of rabbit muscle 20S proteasome (Oryctolagus cuniculus, UniProt A0A5F9DQW2). As to the kind of experiment: In vitro inhibition of 20S proteasome, Z-LLE-AMC. The following applies: read-out: EC50 Caspase-like (PGPH); purified rabbit 20S proteasome, Z-LLE-AMC.
[4] abbreviates: HDP-92, Non-Small Cell Lung Cancer.
[5] abbreviates: mean graph midpoint over all cell lines.

caspase-like (PGPH) activity of rabbit muscle 20S proteasome, sequence (A0A5F9DQW2 1-212): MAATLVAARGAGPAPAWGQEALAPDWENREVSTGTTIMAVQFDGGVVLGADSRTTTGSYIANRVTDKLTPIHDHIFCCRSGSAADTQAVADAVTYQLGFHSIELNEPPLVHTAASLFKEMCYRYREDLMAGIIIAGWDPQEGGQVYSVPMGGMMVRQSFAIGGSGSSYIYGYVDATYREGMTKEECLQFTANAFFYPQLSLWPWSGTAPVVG

Usually GI50 stands for the concentration giving 50% growth inhibition. In general, EC50 refers to the midpoint of the concentration-response curve. Turning to `C[C@@]12OC(=O)[C@]1([C@@H](O)[C@@H]1C=CCCC1)NC(=O)[C@@H]2CCCl` [Formula II-16, Salinosporamide A], the “Log10 G150” value is reported as under -8.00 Molar in the series with ACHN; under -8.00 Molar with HCI-H23; under -8.00 Molar in the series on HDP-92 (setting [4]); under -8.00 Molar in the series on M14 (M14, Melanoma); under -8.00 Molar in the series with SR. The “Log10 TGI” value with ACHN is recorded as -5.27 Molar; with HCI-H23, -7.85 Molar; in the series with HDP-92 (setting [4]), -7.77 Molar; in the series with M14 (M14, Melanoma), -7.94 Molar; in the series on SR, under -8.00 Molar. The CC50 with HDP-92 (Homo sapiens, 60 cell, read-out: Log10 LC50 (converted)) is 4370 nM; with M14 (Homo sapiens, M14, read-out: Log10 LC50 (converted)), 186 nM. Besides, in series [1] (Homo sapiens, read-out: mean GI50 value), the GI50 is under 10 nM. The “Deka Log10 G150” value in series [1] (log units) is recorded as 0.00. In addition, the “Deka Log10 TGI” value in [1] (log units) turned out to be 1.21. For the same compound, in series [1] (log units), the “Range Log10 G150” value is recorded as 0.00. In addition, in series [1] (log units), the “Range Log10 TGI” value amounted to 4.00. Further, in series [1] (setting [5]), the “MG_MID Log10 G150” value is listed as -8.00 Molar. In addition, in [1] (setting [5]), the “MG_MID Log10 TGI” value is on record as -6.79 Molar. For the same compound, the EC50 with HEK293 amounted to 47 nM; in the series on HT-29, 40 ± 26 nM; with HT-29 (Homo sapiens, HT-29, 48 h), 47 nM; in the series with MDA-MB-231 (Homo sapiens, MDA-MB-231, 48 h), 67 nM; in the series on MDA-MB-231, 87 ± 40 nM; with OVCAR-3 (Homo sapiens, OVCAR-3, 48 h) it was 69 nM. Further, the EC50 amounted to 49 ± 31 nM in the series on OVCAR-3; 60 nM in the series on PANC-1; 8.6 ± 1.9 nM in the series on RPMI 8226; 4.7 ± 0.7 nM in the series on U266 (Homo sapiens, U-266, 48 h); 10 nM in the series with Jurkat (Homo sapiens, Jurkat); 23 ± 1 nM in the series on MES-SA/Dx5. The EC50 in the series with MES-SA stood at 20 ± 5 nM; in the series with HL-60/MX2, 25 nM; in the series with HL-60/MX2 (Homo sapiens, HL60/MX2, 48 h), 28 nM; with HL-60, 30 nM; in the series on HL-60 (Homo sapiens, HL-60, 48 h), 27 nM; in the series with PC-3 (PC-3, 48 h drug exposure), 64 ± 26 nM. Also, the “% cytotoxicity” value in the series with RPMI 8226 (listed as II-16) is 94 ± 0%; in the series on RPMI 8226 (listed as Salinosporamide A) it was 94 ± 1%; in the series with MES-SA/Dx5 (MES-SA/Dx5), 92 ± 2%; in the series with MES-SA, 94 ± 1%; in the series on HL-60/MX2 (HL-60/MX2) it was 84% and 89%; with HL-60 (HL-60), 88% and 91%. Further, the “% cytotoxicity” value with PC-3 (PC-3) is 88% and 89%. Moreover, the “% max cell kill” value with Jurkat (Jurkat cells) worked out at 97%. In addition, the “cleavage of PARP and Pro-Caspase 3” value in series [2] was “cleavage of PARP and Pro-caspase 3 in a time-dependent manner; also recorded: dose-dependent cleavage of both PARP and Pro-Caspase 3”.
For `CC[C@H]1C(=O)N[C@@]2([C@@H](O)[C@@H]3C=CCCC3)C(=O)O[C@@]12C` [Formula II-17], the EC50 in the series with HT-29 (Homo sapiens, read-out: EC50) was over 20000 nM; in the series on MDA-MB-231 (Homo sapiens, read-out: EC50), 5900 ± 601 nM; in the series with OVCAR-3 (Homo sapiens, read-out: EC50) it was over 20000 nM; in the series on MES-SA/Dx5 (MES-SA/Dx5, 48 h drug exposure) it was 9450 nM; in the series with MES-SA (48 h drug exposure), 9230 nM; in the series with HL-60/MX2 (Homo sapiens, HL60/MX2, 48 h) it was over 20000 nM. Moreover, the EC50 with HL-60 (Homo sapiens, HL-60, 48 h) was over 20000 nM; in the series on PC-3 (Homo sapiens, PC-3, 48 h) it was over 20000 nM.
`C[C@H]1C(=O)N[C@@]2([C@@H](O)[C@@H]3C=CCCC3)C(=O)O[C@@]12C` [Formula II-20]: the EC50 with RPMI 8226 stood at 8510 ± 3260 nM; in the series with U266 (Homo sapiens, U-266, 48 h), 310 nM; with U266, 442 nM; in series [3], 1420 nM.
